Assay [1] has as its system Human patients diagnosed as having kerratoconjunctivitis sicca (KCS; dry eye). The assay can be described thus: Ocular discomfort score in dry eye patients treated with eye drops. It counts as in vivo. The note with it: day 42, patients with Schirmer score <5 mm/5 min and SPK score at least 3. As to the method:
Human patients diagnosed as having kerratoconjunctivitis sicca (KCS; dry eye) were treated with eye drops containing either various concentrations of tacrolimus, a macrolide compound according to the invention or placebo. Eye drops were administered 3 times per day for six weeks (42 days). Patients were evaluated using the Schirmer test; corneal fluorescein staining, conjunctival lissamine green staining and an ocular discomfort score. Patients were also evaluated based on ratings of their ocular discomfort, which was a composite of scores for burning/stinging, irritation, photophobia, dry eye sensation and foreign body sensation. Scoring was on a five-point scale, as follows: [table]

Assay [2] has the same test system. In words: Conjunctival lissamine green staining in dry eye patients treated with eye drops. The note with it: day 42, patients with Schirmer score <5 mm/5 min and SPK score at least 3. The format is in vivo. On the procedure:
Human patients diagnosed as having kerratoconjunctivitis sicca (KCS; dry eye) were treated with eye drops containing either various concentrations of tacrolimus, a macrolide compound according to the invention or placebo. Eye drops were administered 3 times per day for six weeks (42 days). Patients were evaluated using the Schirmer test; corneal fluorescein staining, conjunctival lissamine green staining and an ocular discomfort score. Conjunctival lissamine green staining was performed by instilling a drop of lissamine green ophthalmic solution into the cul-de-sac of the eye. Following instillation, punctate staining was evaluated for the nasal and temporal interpalpebral conjunctiva using the following scoring system: [table]

The mark [3] stands for this setting: 0.01% eye drops 3 times per day.
Setting [4] is: 0.06% eye drops 3 times per day.

In the case of `C=CCC1/C=C(\C)CC(C)CC(OC)C2OC(O)(C(=O)C(=O)N3CCCCC3C(=O)OC(/C(C)=C/C3CCC(O)C(OC)C3)C(C)C(O)CC1=O)C(C)CC2OC` (stereo not shown) [macrolide compound], the entries for the “mean ocular discomfort decrease from baseline” value in assay [1] (setting [3]) and in assay [1] (setting [4]) were 6.0±4.43 units and 6.8±3.01 units, respectively. Further, the “lissamine green staining decrease from baseline” value in assay [2] (setting [3]) is 1.8±1.47 units; in assay [2] (setting [4]), 3.9±2.03 units.
